# Patent US9409866B2, “Pyridine-2-amides useful as CB2 agonists” (Hoffmann-La Roche Inc., priority 2012, dated 2016)
# What was measured:
# human CB2 receptors = human CB2 receptors (Homo sapiens (Human), UniProt P34972); experiment: functional cAMP assay, CHO cells expressing human CB2; format: cell-based; details: read-out: Human CB2 EC50
# In short: (§1)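 CHO-hCB1/hCB2 cells, KRB + 1 mM IBMX preincubation 30 min 30 °C; cpd 30 min 30 °C; lysis + TR-FRET cAMP detection, 2 h RT; cAMP from std curve; EC50.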
# human CB1 receptors = human CB1 receptors (Homo sapiens (Human), UniProt P21554); experiment: functional cAMP assay, CHO cells expressing human CB1; format: cell-based; details: functional cAMP assay, CHO cells expressing human CB1; read-out: Human CB1 EC50
# Sequence of human CB1 receptors (P21554 whole entry): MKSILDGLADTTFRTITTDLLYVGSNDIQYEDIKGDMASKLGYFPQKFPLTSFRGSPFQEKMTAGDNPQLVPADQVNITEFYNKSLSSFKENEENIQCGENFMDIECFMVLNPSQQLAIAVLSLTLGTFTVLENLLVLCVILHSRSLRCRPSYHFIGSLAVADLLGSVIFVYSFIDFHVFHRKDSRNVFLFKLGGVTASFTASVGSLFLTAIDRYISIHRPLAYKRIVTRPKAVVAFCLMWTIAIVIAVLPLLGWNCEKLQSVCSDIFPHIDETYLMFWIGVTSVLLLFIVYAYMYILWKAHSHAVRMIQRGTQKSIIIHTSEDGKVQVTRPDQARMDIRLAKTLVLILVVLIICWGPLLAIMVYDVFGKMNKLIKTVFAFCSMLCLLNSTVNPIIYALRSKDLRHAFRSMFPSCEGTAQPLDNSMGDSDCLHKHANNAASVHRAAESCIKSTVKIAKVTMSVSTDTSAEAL
# In short: as §1
# Sequence of human CB2 receptors (P34972 whole entry): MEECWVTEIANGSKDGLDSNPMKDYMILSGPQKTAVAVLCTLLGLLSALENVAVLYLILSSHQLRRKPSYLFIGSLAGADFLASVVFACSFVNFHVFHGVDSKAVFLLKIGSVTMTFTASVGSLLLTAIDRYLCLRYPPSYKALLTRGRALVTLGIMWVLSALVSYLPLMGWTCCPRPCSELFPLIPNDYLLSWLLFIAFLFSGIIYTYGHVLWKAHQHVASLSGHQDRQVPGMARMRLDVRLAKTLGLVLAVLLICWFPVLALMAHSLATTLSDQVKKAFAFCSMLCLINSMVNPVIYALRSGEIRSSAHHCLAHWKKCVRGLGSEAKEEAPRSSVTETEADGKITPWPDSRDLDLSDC
SMILES,EC50 (human CB2 receptors) [µM],EC50 (human CB1 receptors) [µM]
"CNC(=O)[C@@H](NC(=O)c1cc(O[C@@H](C)C(F)(F)F)c(C2(F)COC2)cn1)C(C)(C)C [Example 172, N-[(2S)-3,3-dimethyl-1-(methylamino)-1-oxobutan-2-yl]-5-(3-fluorooxetan-3-yl)-4-[(2S)-1,1,1-trifluoropropan-2-yl]oxypyridine-2-carboxamide]",0.0329,> 10
"Cc1nnc(C(C)(CC2CC2)NC(=O)c2cc(OCC(F)(F)F)c(C3CC3)cn2)o1 (centres unmarked) [Example 173, 5-cyclopropyl-N-[1-cyclopropyl-2-(5-methyl-1,3,4-oxadiazol-2-yl)propan-2-yl]-4-(2,2,2-trifluoroethoxy)pyridine-2-carboxamide]",0.0544,> 10
"Cc1nnc(C(NC(=O)c2cc(OCC(F)(F)F)c(C3CC3)cn2)C(C)(C)C)o1 (centres unmarked) [Example 174, 5-cyclopropyl-N-[2,2-dimethyl-1-(5-methyl-1,3,4-oxadiazol-2-yl)propyl]-4-(2,2,2-trifluoroethoxy)pyridine-2-carboxamide]",0.0218,> 10
"Cc1nnc(C(NC(=O)c2cc(O[C@@H](C)C(F)(F)F)c(C3(F)COC3)cn2)C(C)(C)C)o1 (stereo partly drawn) [Example 175, N-[2,2-dimethyl-1-(5-methyl-1,3,4-oxadiazol-2-yl)propyl]-5-(3-fluorooxetan-3-yl)-4-[(2S)-1,1,1-trifluoropropan-2-yl]oxypyridine-2-carboxamide]",0.0955,> 10
"Cc1nnc(C(C)(CC2CC2)NC(=O)c2cc(O[C@@H](C)C(F)(F)F)c(C3(F)COC3)cn2)o1 (stereo partly drawn) [Example 176, N-[1-cyclopropyl-2-(5-methyl-1,3,4-oxadiazol-2-yl)propan-2-yl]-5-(3-fluorooxetan-3-yl)-4-[(2S)-1,1,1-trifluoropropan-2-yl]oxypyridine-2-carboxamide]",0.443,> 10
"Cc1cnc(C(C)(CC2CC2)NC(=O)c2cc(OCC(F)(F)F)c(C3CC3)cn2)s1 (centres unmarked) [Example 177, 5-cyclopropyl-N-[1-cyclopropyl-2-(5-methyl-1,3-thiazol-2-yl)propan-2-yl]-4-(2,2,2-trifluoroethoxy)pyridine-2-carboxamide]",0.0124,> 10
"Cc1nc(C(C)(NC(=O)c2cc(OCC(F)(F)F)c(C3CC3)cn2)C(N)=O)no1 (centres unmarked) [Example 180, N-[1-amino-2-(5-methyl-1,2,4-oxadiazol-3-yl)-1-oxopropan-2-yl]-5-cyclopropyl-4-(2,2,2-trifluoroethoxy)pyridine-2-carboxamide]",0.149,> 10
"Cc1nc(C(C)(NC(=O)c2cc(OCC(F)(F)F)c(C3CC3)cn2)C(=O)N(C)C)no1 (centres unmarked) [Example 181, 5-cyclopropyl-N-[1-(dimethylamino)-2-(5-methyl-1,2,4-oxadiazol-3-yl)-1-oxopropan-2-yl]-4-(2,2,2-trifluoroethoxy)pyridine-2-carboxamide]",0.002,> 10
"Cc1nc(C(C)(NC(=O)c2cc(OCC(F)(F)F)c(C3CC3)cn2)C(=O)N2CCC2)no1 (centres unmarked) [Example 182, N-[1-(azetidin-1-yl)-2-(5-methyl-1,2,4-oxadiazol-3-yl)-1-oxopropan-2-yl]-5-cyclopropyl-4-(2,2,2-trifluoroethoxy)pyridine-2-carboxamide]",0.0054,> 10
"CNC(=O)C(C)(NC(=O)c1cc(O[C@@H](C)C(F)(F)F)c(C2(F)COC2)cn1)c1noc(C)n1 (stereo partly drawn) [Example 183, 5-(3-fluorooxetan-3-yl)-N-[1-(methylamino)-2-(5-methyl-1,2,4-oxadiazol-3-yl)-1-oxopropan-2-yl]-4-[(2S)-1,1,1-trifluoropropan-2-yl]oxypyridine-2-carboxamide]",0.917,> 10
"CC(CC1CC1)(NC(=O)c1cc(OCC(F)(F)F)c(C2CC2)cn1)C(N)=O (centres unmarked) [Example 186, N-(1-amino-3-cyclopropyl-2-methyl-1-oxopropan-2-yl)-5-cyclopropyl-4-(2,2,2-trifluoroethoxy)pyridine-2-carboxamide]",0.343,> 10
"CNC(=O)C(C)(CC1CC1)NC(=O)c1cc(OCC(F)(F)F)c(C2CC2)cn1 (centres unmarked) [Example 189, 5-cyclopropyl-N-[3-cyclopropyl-2-methyl-1-(methylamino)-1-oxopropan-2-yl]-4-(2,2,2-trifluoroethoxy)pyridine-2-carboxamide]",0.292,> 10
"Cc1nnc(C(C)(CC2COC2)NC(=O)c2cc(O[C@@H](C)C(F)(F)F)c(C3CC3)cn2)o1 (stereo partly drawn) [Example 190, 5-cyclopropyl-N-[2-(5-methyl-1,3,4-oxadiazol-2-yl)-1-(oxetan-3-yl)propan-2-yl]-4-[(2S)-1,1,1-trifluoropropan-2-yl]oxypyridine-2-carboxamide]",0.559,> 10
"Cc1nnc(C(C)(CC2COC2)NC(=O)c2cc(OCC(F)(F)F)c(C3CC3)cn2)o1 (centres unmarked) [Example 191, 5-cyclopropyl-N-[2-(5-methyl-1,3,4-oxadiazol-2-yl)-1-(oxetan-3-yl)propan-2-yl]-4-(2,2,2-trifluoroethoxy)pyridine-2-carboxamide]",0.707,> 10
"CC(C)(C)C(NC(=O)c1cc(OCC(F)(F)F)c(C2CC2)cn1)c1noc(N)n1 (centres unmarked) [Example 192, N-[1-(5-amino-1,2,4-oxadiazol-3-yl)-2,2-dimethylpropyl]-5-cyclopropyl-4-(2,2,2-trifluoroethoxy)pyridine-2-carboxamide]",0.0044,> 10
"NC(=O)CC(NC(=O)c1cc(OCC(F)(F)F)c(C2CC2)cn1)C1CC1 (centres unmarked) [Example 193, N-(3-amino-1-cyclopropyl-3-oxopropyl)-5-cyclopropyl-4-(2,2,2-trifluoroethoxy)pyridine-2-carboxamide]",0.114,> 10
"CC(C)(C)C(NC(=O)c1cc(OCC(F)(F)F)c(C2CC2)cn1)C(N)=O (centres unmarked) [Example 194, N-(1-amino-3,3-dimethyl-1-oxobutan-2-yl)-5-cyclopropyl-4-(2,2,2-trifluoroethoxy)pyridine-2-carboxamide]",0.0151,> 10
"CN(C)C(=O)C(NC(=O)c1cc(OCC(F)(F)F)c(C2CC2)cn1)C(C)(C)C (centres unmarked) [Example 195, 5-cyclopropyl-N-[1-(dimethylamino)-3,3-dimethyl-1-oxobutan-2-yl]-4-(2,2,2-trifluoroethoxy)pyridine-2-carboxamide]",0.0034,> 10
"CC(C)(C)C(NC(=O)c1cc(OCC(F)(F)F)c(C2CC2)cn1)C(=O)N1CCC1 (centres unmarked) [Example 196, N-[1-(azetidin-1-yl)-3,3-dimethyl-1-oxobutan-2-yl]-5-cyclopropyl-4-(2,2,2-trifluoroethoxy)pyridine-2-carboxamide]",0.0012,> 10
"CC(C)(C)C(NC(=O)c1cc(OCC(F)(F)F)c(C2CC2)cn1)C(=O)N1CC(F)(F)C1 (centres unmarked) [Example 197, 5-cyclopropyl-N-[1-(3,3-difluoroazetidin-1-yl)-3,3-dimethyl-1-oxobutan-2-yl]-4-(2,2,2-trifluoroethoxy)pyridine-2-carboxamide]",0.0076,> 10
"CC(C)(C)C(NC(=O)c1cc(OCC(F)(F)F)c(C2CC2)cn1)C(=O)N1CCC12COC2 (centres unmarked) [Example 198, 5-cyclopropyl-N-[3,3-dimethyl-1-(6-oxa-1-azaspiro[3.3]heptan-1-yl)-1-oxobutan-2-yl]-4-(2,2,2-trifluoroethoxy)pyridine-2-carboxamide]",0.0364,> 10
"C[C@H](Oc1cc(C(=O)NC(C(N)=O)C(C)(C)C)ncc1C1CC1)C(F)(F)F (stereo partly drawn) [Example 199, N-(1-amino-3,3-dimethyl-1-oxobutan-2-yl)-5-cyclopropyl-4-[(2S)-1,1,1-trifluoropropan-2-yl]oxypyridine-2-carboxamide]",0.0078,> 10
"CNC(=O)C(NC(=O)c1cc(O[C@@H](C)C(F)(F)F)c(C2CC2)cn1)C(C)(C)C (stereo partly drawn) [Example 200, 5-cyclopropyl-N-[3,3-dimethyl-1-(methylamino)-1-oxobutan-2-yl]-4-[(2S)-1,1,1-trifluoropropan-2-yl]oxypyridine-2-carboxamide]",0.0026,> 10
"C[C@H](Oc1cc(C(=O)NC(C(=O)N(C)C)C(C)(C)C)ncc1C1CC1)C(F)(F)F (stereo partly drawn) [Example 201, 5-cyclopropyl-N-[1-(dimethylamino)-3,3-dimethyl-1-oxobutan-2-yl]-4-[(2S)-1,1,1-trifluoropropan-2-yl]oxypyridine-2-carboxamide]",0.0024,> 10
"C[C@H](Oc1cc(C(=O)NC(C(=O)N2CCC2)C(C)(C)C)ncc1C1CC1)C(F)(F)F (stereo partly drawn) [Example 202, N-[1-(azetidin-1-yl)-3,3-dimethyl-1-oxobutan-2-yl]-5-cyclopropyl-4-[(2S)-1,1,1-trifluoropropan-2-yl]oxypyridine-2-carboxamide]",0.0022,> 10
"C[C@H](Oc1cc(C(=O)NC(C(=O)N2CC(F)(F)C2)C(C)(C)C)ncc1C1CC1)C(F)(F)F (stereo partly drawn) [Example 203, 5-cyclopropyl-N-[1-(3,3-difluoroazetidin-1-yl)-3,3-dimethyl-1-oxobutan-2-yl]-4-[(2S)-1,1,1-trifluoropropan-2-yl]oxypyridine-2-carboxamide]",0.0051,> 10
"C[C@H](Oc1cc(C(=O)NC(C(=O)N2CCC23COC3)C(C)(C)C)ncc1C1CC1)C(F)(F)F (stereo partly drawn) [Example 204, 5-cyclopropyl-N-[3,3-dimethyl-1-(6-oxa-1-azaspiro[3.3]heptan-1-yl)-1-oxobutan-2-yl]-4-[(2S)-1,1,1-trifluoropropan-2-yl]oxypyridine-2-carboxamide]",0.0646,> 10
"C[C@H](Oc1cc(C(=O)NC(c2noc(N)n2)C(C)(C)C)ncc1C1CC1)C(F)(F)F (stereo partly drawn) [Example 213, N-[1-(5-amino-1,2,4-oxadiazol-3-yl)-2,2-dimethylpropyl]-5-cyclopropyl-4-[(2S)-1,1,1-trifluoropropan-2-yl]oxypyridine-2-carboxamide]",0.0111,> 10
